Experimental data from ChEMBL document CHEMBL1201862, “PubChem BioAssay data set” (2004).
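Where inhibition never reached the appropriate level, the endpoint shown equals the highest concentration tested. Otherwise, values were interpolated linearly from a five-concentration, 48-hour dose response in 96-well plates. GI50: concentration for 50% inhibition of growth.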 The source made the active and inactive calls. No stated cut-off is given here; in the data, active = GI50 up to about 1.1 µM and inactive = higher. *1 amine or outer side, *2 acyl side, *3 side chain or, on linkers, in order; H or OH if unused. Where a SMILES comes first, the peptide text is derived from it. Bridges are numbered along the chain shown (N, C = ends). Roman numbers before positions name the chains, in order. [ ]: non-standard residue; d: D form. Actinocin(9to1) = Cc1c2oc3c(C)ccc(C(=O)[*:1])c3nc-2c(C(=O)[*:2])c(N)c1=O; Hyp = O=C(O)[CH]1C[CH](O)CN1; NMeV = CN[CH](C(=O)O)C(C)C; Sar = CNCC(=O)O

Key:
Assay in all cases: inhibition of tumour cell growth, NCI panel, 48 h
SK-MEL-5 = system: SK-MEL-5
A549 = system: A549
LOX IMVI = system: LOX IMVI
SNB-19 = system: SNB-19
CCRF-CEM = system: CCRF-CEM
SK-OV-3 = system: SK-OV-3
HL-60 = system: HL-60
HT-29 = system: HT-29
K562 = system: K562
HOP-62 = system: HOP-62
ACHN = system: ACHN
UACC-257 = system: UACC-257
NCI/ADR-RES = system: NCI/ADR-RES
Malme-3M = system: Malme-3M
786-0 = system: 786-0
Hs-578T = system: Hs-578T
KM12 = system: KM12
OVCAR-5 = system: OVCAR-5
SK-MEL-28 = system: SK-MEL-28
SF-268 = system: SF-268
RPMI-8226 = system: RPMI-8226
HCC 2998 = system: HCC 2998
OVCAR-3 = system: OVCAR-3
NCI-H522 = system: NCI-H522
MCF7 = system: MCF7
M14 = system: M14
HOP-92 = system: HOP-92
NCI-H460 = system: NCI-H460
EKVX = system: EKVX
NCI-H226 = system: NCI-H226
UACC-62 = system: UACC-62
SF-295 = system: SF-295
CAKI-1 = system: CAKI-1
MOLT-4 = system: MOLT-4
COLO 205 = system: COLO 205
MDA-N = system: MDA-N
OVCAR-4 = system: OVCAR-4
U-251 = system: U-251
IGROV-1 = system: IGROV-1
SW-620 = system: SW-620
SR = system: SR
MDA-MB-231 = system: MDA-MB-231
PC-3 = system: PC-3
UO-31 = system: UO-31
SNB-75 = system: SNB-75
SF-539 = system: SF-539
RXF 393 = system: RXF 393
HCT-116 = system: HCT-116
HCT-15 = system: HCT-15
MDA-MB-435 = system: MDA-MB-435
SK-MEL-2 = system: SK-MEL-2
A498 = system: A498
DU-145 = system: DU-145
SN12C = system: SN12C
TK-10 = system: TK-10
NCI-H23 = system: NCI-H23
T47D = system: T47D
BT-549 = system: BT-549
OVCAR-8 = system: OVCAR-8

For `N#Cc1nc(CCC(c2nc(C#N)c(N)o2)N2C(=O)c3ccccc3C2=O)oc1N` (stereo not given), the GI50 (SK-MEL-5) was > 100 µM (inactive), the GI50 (A549) was > 100 µM (inactive) and the GI50 (LOX IMVI) was > 100 µM (inactive). For the same molecule, the GI50 (SNB-19) was > 100 µM (inactive), the GI50 (CCRF-CEM) was > 10 µM (inactive) and the GI50 (SK-OV-3) was > 100 µM (inactive). The GI50 (HL-60) was > 100 µM (inactive), the GI50 (HT-29) was > 100 µM (inactive) and the GI50 (K562) was 32.8 µM (inactive). For the same molecule, the GI50 (HOP-62) was > 100 µM (inactive), the GI50 (ACHN) was > 100 µM (inactive) and the GI50 (UACC-257) was > 100 µM (inactive). For the same molecule, the GI50 (NCI/ADR-RES) was > 100 µM (inactive), the GI50 (Malme-3M) was > 100 µM (inactive) and the GI50 (786-0) was > 100 µM (inactive). The GI50 (Hs-578T) was > 100 µM (inactive), the GI50 (KM12) was > 100 µM (inactive) and the GI50 (OVCAR-5) was > 100 µM (inactive). The GI50 (SK-MEL-28) was > 100 µM (inactive), the GI50 (SF-268) was > 100 µM (inactive) and the GI50 (RPMI-8226) was > 100 µM (inactive). For the same molecule, the GI50 (HCC 2998) was > 100 µM (inactive), the GI50 (OVCAR-3) was > 100 µM (inactive) and the GI50 (NCI-H522) was > 100 µM (inactive). The GI50 (MCF7) was > 100 µM (inactive), the GI50 (M14) was > 100 µM (inactive) and the GI50 (HOP-92) was > 100 µM (inactive). The GI50 (NCI-H460) was > 100 µM (inactive), the GI50 (EKVX) was > 100 µM (inactive) and the GI50 (NCI-H226) was > 100 µM (inactive). For the same molecule, the GI50 (UACC-62) was > 100 µM (inactive), the GI50 (SF-295) was > 100 µM (inactive) and the GI50 (CAKI-1) was > 100 µM (inactive). For the same molecule, the GI50 (MOLT-4) was 27.8 µM (inactive), the GI50 (COLO 205) was > 100 µM (inactive) and the GI50 (MDA-N) was > 100 µM (inactive). The GI50 (OVCAR-4) was 67.6 µM (inactive), the GI50 (U-251) was > 100 µM (inactive) and the GI50 (IGROV-1) was > 100 µM (inactive). The GI50 (SW-620) was > 100 µM (inactive), the GI50 (SR) was < 0.01 µM (active) and the GI50 (MDA-MB-231) was > 100 µM (inactive). For the same molecule, the GI50 (PC-3) was > 100 µM (inactive), the GI50 (UO-31) was > 100 µM (inactive) and the GI50 (SNB-75) was > 100 µM (inactive). For the same molecule, the GI50 (SF-539) was > 100 µM (inactive), the GI50 (RXF 393) was > 100 µM (inactive) and the GI50 (HCT-116) was > 100 µM (inactive). The GI50 (HCT-15) was > 100 µM, the GI50 (MDA-MB-435) was > 100 µM (inactive) and the GI50 (SK-MEL-2) was > 100 µM (inactive). For the same molecule, the GI50 (A498) was > 100 µM (inactive), the GI50 (DU-145) was > 100 µM (inactive) and the GI50 (SN12C) was > 100 µM (inactive). For the same molecule, the GI50 (TK-10) was > 100 µM (inactive), the GI50 (NCI-H23) was > 100 µM (inactive) and the GI50 (T47D) was > 100 µM (inactive).

With `CSc1n[nH]c2c1c(C)nn2-c1ccccc1` the GI50 (SK-MEL-5) was > 100 µM (inactive), the GI50 (A549) was > 100 µM (inactive) and the GI50 (SNB-19) was > 100 µM (inactive). For the same molecule, the GI50 (SK-OV-3) was > 100 µM (inactive), the GI50 (HL-60) was 71.3 µM (inactive) and the GI50 (HT-29) was > 100 µM (inactive). The GI50 (K562) was > 100 µM (inactive), the GI50 (UACC-257) was > 100 µM (inactive) and the GI50 (OVCAR-5) was > 100 µM (inactive). The GI50 (SK-MEL-28) was > 100 µM (inactive), the GI50 (RPMI-8226) was > 100 µM (inactive) and the GI50 (HCC 2998) was > 100 µM (inactive). The GI50 (OVCAR-3) was > 100 µM (inactive), the GI50 (MCF7) was > 100 µM (inactive) and the GI50 (M14) was > 100 µM (inactive). For the same molecule, the GI50 (HOP-92) was > 100 µM (inactive), the GI50 (NCI-H460) was > 100 µM (inactive) and the GI50 (EKVX) was > 100 µM (inactive). The GI50 (NCI-H226) was > 100 µM (inactive), the GI50 (UACC-62) was > 100 µM (inactive) and the GI50 (MOLT-4) was > 100 µM (inactive). For the same molecule, the GI50 (BT-549) was > 100 µM (inactive), the GI50 (OVCAR-4) was > 100 µM (inactive) and the GI50 (U-251) was > 100 µM (inactive). The GI50 (IGROV-1) was > 100 µM (inactive), the GI50 (SW-620) was > 100 µM (inactive) and the GI50 (SR) was > 100 µM (inactive). For the same molecule, the GI50 (PC-3) was > 100 µM (inactive), the GI50 (UO-31) was > 100 µM (inactive) and the GI50 (SF-539) was > 100 µM (inactive). For the same molecule, the GI50 (RXF 393) was > 100 µM (inactive), the GI50 (HCT-15) was > 100 µM and the GI50 (MDA-MB-435) was > 100 µM (inactive). The GI50 (SK-MEL-2) was > 100 µM (inactive), the GI50 (TK-10) was > 100 µM (inactive) and the GI50 (NCI-H23) was > 100 µM (inactive).

`Cc1c2oc3c(C)ccc(C(=O)NC4C(=O)NC(C(C)C)C(=O)N5CC(O)CC5C(=O)N(C)CC(=O)N(C)C(C(C)C)C(=O)OC4C)c3nc-2c(C(=O)NC2C(=O)NC(C(C)C)C(=O)N3CC(O)CC3C(=O)N(C)CC(=O)N(C)C(C(C)C)C(=O)OC2C)c(N)c1=O` (stereo not given) (I: TV[Hyp][Sar][NMeV] / II: TV[Hyp][Sar][NMeV]; ester I:1-I:C, II:1-II:C; linker I:N-II:N via Actinocin(9to1); configuration not given here) was tested, and the GI50 (SK-MEL-5) was > 1 µM (active), the GI50 (A549) was > 1 µM (active) and the GI50 (LOX IMVI) was > 1 µM (active). For the same molecule, the GI50 (SNB-19) was > 1 µM (active), the GI50 (CCRF-CEM) was > 1 µM (active) and the GI50 (SK-OV-3) was > 1 µM (active). For the same molecule, the GI50 (HL-60) was > 1 µM (active), the GI50 (HT-29) was > 1 µM (active) and the GI50 (K562) was > 1 µM (active). For the same molecule, the GI50 (HOP-62) was > 1 µM (active), the GI50 (ACHN) was > 1 µM (active) and the GI50 (UACC-257) was > 1 µM (active). The GI50 (NCI/ADR-RES) was > 1 µM (active), the GI50 (Malme-3M) was > 1 µM (active) and the GI50 (786-0) was > 1 µM (active). For the same molecule, the GI50 (Hs-578T) was > 1 µM (active), the GI50 (KM12) was > 1 µM (active) and the GI50 (OVCAR-8) was > 1 µM (active). For the same molecule, the GI50 (OVCAR-5) was > 1 µM (active), the GI50 (SK-MEL-28) was > 1 µM (active) and the GI50 (SF-268) was > 1 µM (active). The GI50 (RPMI-8226) was > 1 µM (active), the GI50 (HCC 2998) was > 1 µM (active) and the GI50 (OVCAR-3) was > 1 µM (active). For the same molecule, the GI50 (NCI-H522) was 0.0522 µM (active), the GI50 (MCF7) was > 1 µM (active) and the GI50 (M14) was > 1 µM (active). For the same molecule, the GI50 (HOP-92) was > 1 µM (active), the GI50 (NCI-H460) was > 1 µM (active) and the GI50 (EKVX) was > 1 µM (active). The GI50 (NCI-H226) was > 1 µM (active), the GI50 (SF-295) was > 1 µM (active) and the GI50 (CAKI-1) was > 1 µM (active). For the same molecule, the GI50 (MOLT-4) was > 1 µM (active), the GI50 (COLO 205) was > 1 µM (active) and the GI50 (MDA-N) was > 1 µM (active). The GI50 (OVCAR-4) was > 1 µM (active), the GI50 (U-251) was > 1 µM (active) and the GI50 (IGROV-1) was > 1 µM (active). The GI50 (SW-620) was > 1 µM (active), the GI50 (SR) was 0.748 µM (active) and the GI50 (MDA-MB-231) was > 1 µM (active). For the same molecule, the GI50 (PC-3) was > 1 µM (active), the GI50 (UO-31) was > 1 µM (active) and the GI50 (SNB-75) was > 1 µM (active). For the same molecule, the GI50 (SF-539) was > 1 µM (active), the GI50 (RXF 393) was > 1 µM (active) and the GI50 (HCT-116) was > 1 µM (active). The GI50 (HCT-15) was > 1 µM, the GI50 (MDA-MB-435) was > 1 µM (active) and the GI50 (SK-MEL-2) was > 1 µM (active). For the same molecule, the GI50 (A498) was > 1 µM (active), the GI50 (DU-145) was > 1 µM (active) and the GI50 (SN12C) was > 1 µM (active). For the same molecule, the GI50 (TK-10) was > 1 µM (active), the GI50 (NCI-H23) was > 1 µM (active) and the GI50 (T47D) was > 1 µM (active).
